Experimental findings from PMC4496667, “Large-scale Direct Targeting for Drug Repositioning and Discovery” (Scientific Reports, 2015) are described below.

Where “and” joins values, the source holds several entries; their conditions need not be identical. Identical values can stand only once. Like-named read-outs stand apart in the source and are kept apart here.

One experiment concerns the target T1, Faah (Homo sapiens, UniProt O00519).
T1 construct: purchased Cayman Chemical
T1 sequence (O00519 1-579): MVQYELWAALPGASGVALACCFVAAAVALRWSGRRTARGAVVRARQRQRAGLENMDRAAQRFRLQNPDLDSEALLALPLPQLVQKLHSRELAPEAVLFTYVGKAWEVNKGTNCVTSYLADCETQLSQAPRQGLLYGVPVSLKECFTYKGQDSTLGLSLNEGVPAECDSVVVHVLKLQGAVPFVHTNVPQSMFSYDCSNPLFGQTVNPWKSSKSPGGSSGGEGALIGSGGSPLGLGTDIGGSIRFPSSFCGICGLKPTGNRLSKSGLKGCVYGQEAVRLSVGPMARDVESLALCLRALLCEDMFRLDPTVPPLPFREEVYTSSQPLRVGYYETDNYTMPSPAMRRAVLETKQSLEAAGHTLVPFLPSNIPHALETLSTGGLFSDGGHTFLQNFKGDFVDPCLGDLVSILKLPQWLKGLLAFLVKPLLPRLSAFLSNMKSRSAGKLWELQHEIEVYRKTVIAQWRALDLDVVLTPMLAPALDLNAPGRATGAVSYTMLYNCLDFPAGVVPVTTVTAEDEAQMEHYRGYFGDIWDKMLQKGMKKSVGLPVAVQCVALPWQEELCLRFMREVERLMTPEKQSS
Description: FAAH Inhibitor Screening Assay Kit (Faah). The settings on record: target Faah; mean ± SD of three independent repeats, Bliss method, eight data points. Type of experiment: biochemical. The protocol: (§1) To validate the practicability of WES model, we randomly selected Enpp2, Faah, PTGS2, PPARG, and REN, the five inflammation-related targets, and predicted their direct ligand-target interactions. The 24 top-scoring (hybrid-WES) and commercially available drug-target interactions (Table 3) were tested by the ligand-binding assays.
(§2) Enpp2 (Autotaxin Inhibitor Screening Assay Kit), Faah (FAAH Inhibitor Screening Assay Kit), PTGS2 (COX Inhibitor Screening Assay Kit), PPARG (PPARγ Ligand Screening Assay Kit), and REN (Renin Inhibitor Screening Assay Kit) were purchased from Cayman Chemical, Ann Arbor, MI, USA. […] The activity of targets was detected according to manufacturer’s instructions. IC50 values were determined using the Bliss method according to the eight data points per drug. The same drug-target interaction was repeated independently three times to obtain a mean IC50 value and its standard deviation.

Another experiment concerns the target T2, REN (Homo sapiens, UniProt P00797).
T2 construct: purchased Cayman Chemical
T2 sequence (P00797 67-406): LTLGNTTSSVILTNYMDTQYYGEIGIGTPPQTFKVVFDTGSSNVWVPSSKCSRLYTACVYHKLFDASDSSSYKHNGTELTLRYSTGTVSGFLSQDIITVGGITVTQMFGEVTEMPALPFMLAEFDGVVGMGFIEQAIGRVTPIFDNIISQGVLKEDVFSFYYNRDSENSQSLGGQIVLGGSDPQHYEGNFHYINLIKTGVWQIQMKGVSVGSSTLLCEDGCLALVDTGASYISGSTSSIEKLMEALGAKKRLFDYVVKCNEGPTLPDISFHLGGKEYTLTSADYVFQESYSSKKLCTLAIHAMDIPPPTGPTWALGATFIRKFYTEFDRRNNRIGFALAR
Description: Renin Inhibitor Screening Assay Kit (REN). Type of experiment: biochemical. The conditions noted are these: target REN; mean ± SD of three independent repeats, Bliss method, eight data points. On the procedure:
as §1, §2

In a further experiment the target is T3, PPARG (Homo sapiens, UniProt P37231).
T3 sequence (P37231 1-505): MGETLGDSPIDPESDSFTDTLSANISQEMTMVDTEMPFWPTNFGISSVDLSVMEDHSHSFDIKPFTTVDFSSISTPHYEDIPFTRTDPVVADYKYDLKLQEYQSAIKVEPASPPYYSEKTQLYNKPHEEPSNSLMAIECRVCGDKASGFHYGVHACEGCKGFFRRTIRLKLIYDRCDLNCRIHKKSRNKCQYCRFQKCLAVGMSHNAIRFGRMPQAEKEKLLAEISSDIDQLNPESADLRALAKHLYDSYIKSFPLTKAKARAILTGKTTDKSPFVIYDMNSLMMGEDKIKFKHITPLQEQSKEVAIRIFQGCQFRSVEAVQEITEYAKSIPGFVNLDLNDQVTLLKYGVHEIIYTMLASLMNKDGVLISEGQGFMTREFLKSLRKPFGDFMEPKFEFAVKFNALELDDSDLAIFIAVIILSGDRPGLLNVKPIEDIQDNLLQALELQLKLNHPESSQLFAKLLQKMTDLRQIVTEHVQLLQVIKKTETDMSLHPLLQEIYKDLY
Kind of experiment: PPARγ Ligand Screening Assay Kit (PPARG). The settings on record: target PPARG; mean ± SD of three independent repeats, Bliss method, eight data points. Type of experiment: binding. On the procedure:
as §1, §2

In a further experiment the target is T4, Enpp2 (Homo sapiens, UniProt Q13822).
T4 construct: purchased Cayman Chemical
Kind of experiment: Autotaxin Inhibitor Screening Assay Kit (Enpp2). The class given is biochemical. The protocol:
as §1, §2

In a further experiment the target is T5, PTGS2 (Homo sapiens, UniProt P35354).
T5 construct: purchased Cayman Chemical
T5 sequence (P35354 18-604): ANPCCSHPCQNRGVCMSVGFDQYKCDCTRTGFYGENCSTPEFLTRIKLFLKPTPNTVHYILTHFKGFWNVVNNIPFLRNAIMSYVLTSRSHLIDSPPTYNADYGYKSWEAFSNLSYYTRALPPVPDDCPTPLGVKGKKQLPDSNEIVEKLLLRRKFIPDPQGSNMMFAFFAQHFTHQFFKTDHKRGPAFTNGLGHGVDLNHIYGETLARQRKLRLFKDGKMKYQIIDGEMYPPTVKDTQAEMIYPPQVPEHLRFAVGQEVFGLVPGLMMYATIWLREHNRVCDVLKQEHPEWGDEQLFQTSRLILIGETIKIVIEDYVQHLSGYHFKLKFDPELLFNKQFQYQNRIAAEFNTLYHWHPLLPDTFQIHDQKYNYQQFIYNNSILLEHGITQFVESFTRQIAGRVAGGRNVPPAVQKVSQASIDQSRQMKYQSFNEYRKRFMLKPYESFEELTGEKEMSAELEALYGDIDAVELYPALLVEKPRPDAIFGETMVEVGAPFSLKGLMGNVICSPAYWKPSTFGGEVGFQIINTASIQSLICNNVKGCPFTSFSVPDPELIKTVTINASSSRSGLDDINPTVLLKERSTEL
Kind of experiment: COX Inhibitor Screening Assay Kit (PTGS2). The class given is biochemical. The settings on record: target PTGS2; mean ± SD of three independent repeats, Bliss method, eight data points. On the procedure:
as §1, §2

Setting [1] is: target Enpp2, mean ± SD of three independent repeats, Bliss method, eight data points, read-out: IC50 (μM):mean ± SD.

Consider `CC/C=C\C/C=C\C/C=C\CCCCCCCC(=O)O` [Alpha-linolenic acid], for which the concentration for half-maximal inhibition (IC50) (usually the point on the concentration scale where inhibition reaches its midpoint) on Faah was 43.9 µM and 53.9 µM.
On to `CC(C)C[C@H](NC(=O)[C@H](CCc1ccccc1)NC(=O)CN1CCOCC1)C(=O)N[C@@H](Cc1ccccc1)C(=O)N[C@@H](CC(C)C)C(=O)[C@@]1(C)CO1` [Carfilzomib], for which the IC50 at REN stood at 22 ± 6.4 µM.
Molecule `COC(=O)CCc1ccc(OCC(O)CNC(C)C)cc1` (stereo not drawn) [Esmolol] registered a half-maximal inhibitory concentration (IC50) against PPARG of 40.8 ± 6.5 µM.
On to `CCCCCCCCc1ccc(CCC(N)(CO)CO)cc1` [Fingolimod], for which the IC50 at Enpp2 (setting [1]) is 115 ± 5.8 µM.
Still for that read-out and setting: in the case of `CCN(CC)CC(=O)OCC(=O)[C@@]1(O)CC[C@H]2[C@@H]3CCC4=CC(=O)CC[C@]4(C)[C@H]3[C@@H](O)C[C@@]21C` [Hydrocortamate] it was 218 ± 6.4 µM.
`CC(C)(C)NC(=O)[C@@H]1CN(Cc2cccnc2)CCN1C[C@@H](O)C[C@@H](Cc1ccccc1)C(=O)N[C@H]1c2ccccc2C[C@H]1O` [Indinavir] gave an IC50 on REN of 44.3 ± 12.1 µM.
On the same count and under the same terms, in the case of `Cc1cccc(C)c1OCC(=O)N[C@@H](Cc1ccccc1)[C@@H](O)C[C@H](Cc1ccccc1)NC(=O)[C@H](C(C)C)N1CCCNC1=O` [Lopinavir] it was 49.3 ± 10.3 µM.
In the case of `C/C(=C\C(=O)OCCCCCCCCC(=O)O)C[C@@H]1OC[C@H](C[C@@H]2O[C@H]2[C@@H](C)[C@H](C)O)[C@@H](O)[C@H]1O` [Mupirocin], the half-maximal inhibitory concentration (IC50) against PTGS2 stood at 123 ± 7.4 µM.
The same measure, in the same setting: in the case of `CC[C@H](C)C(=O)O[C@H]1C[C@H](O)C=C2C=C[C@H](C)[C@H](CC[C@@H](O)C[C@@H](O)CC(=O)O)[C@H]21` [Pravastatin] it was 199 ± 12.3 µM; in that of `Cc1c(C(=O)NN2CCCCC2)nn(-c2ccc(Cl)cc2Cl)c1-c1ccc(Cl)cc1` [Rimonabant], 138 ± 3.5 µM.
On Faah, `CC(=O)OCC(=O)NCCCOc1cccc(CN2CCCCC2)c1` [Roxatidine acetate] had an IC50 of 34.5 ± 1.5 µM.
`CC(C)(C)NC(=O)[C@@H]1C[C@@H]2CCCC[C@@H]2CN1C[C@@H](O)[C@H](Cc1ccccc1)NC(=O)[C@H](CC(N)=O)NC(=O)c1ccc2ccccc2n1` [Saquinavir]: at REN, the IC50 was 69.1 ± 4.2 µM.
`CCCCC[C@H](O)CC[C@@H]1[C@H]2Cc3cccc(OCC(=O)O)c3C[C@H]2C[C@H]1O` [Treprostinil]: on PPARG, the IC50 is 69 ± 17.5 µM and the “IC50 (μM):mean ± SD” value is given as “micromolar concentration range”.
As for `CN[C@H](CC(C)C)C(=O)N[C@H]1C(=O)N[C@@H](CC(N)=O)C(=O)N[C@H]2C(=O)N[C@H]3C(=O)N[C@H](C(=O)N[C@H](C(=O)O)c4cc(O)cc(O)c4-c4cc3ccc4O)[C@H](O)c3ccc(c(Cl)c3)Oc3cc2cc(c3O[C@@H]2O[C@H](CO)[C@@H](O)[C@H](O)[C@H]2O[C@H]2C[C@](C)(N)[C@H](O)[C@H](C)O2)Oc2ccc(cc2Cl)[C@H]1O` [Vancomycin], on Enpp2, the IC50 is 68.5 ± 7 µM.
Regarding Cetrorelix (AFASYRLRPA), inhibition with REN was half-maximal at 156 ± 3.7 µM (IC50).
The same measure, in the same setting: next, Felypressin (CFFQNCPKG): 4.5 ± 7.1 µM.
On to Pasireotide, for which the IC50 with Enpp2 (setting [1]) amounted to 73.3 ± 9.7 µM.
